Test results published in PubChem BioAssay (NCI).
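Protocol summary: plate cells (96-well), add compound at 5 concentrations, incubate 48 h, interpolate endpoints linearly. Here, GI50 denotes the concentration required for 50% inhibition of growth. TGI: total growth inhibition.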

Tests used:
Experiment in all cases: inhibition of tumour cell growth, NCI panel, 48 h
A498 renal = test system: A498 renal
ACHN renal = test system: ACHN renal
EKVX NSCLC = test system: EKVX NSCLC
MCF7 breast = test system: MCF7 breast
MDA-MB-231 breast = test system: MDA-MB-231 breast
OVCAR-3 ovarian = test system: OVCAR-3 ovarian
OVCAR-4 ovarian = test system: OVCAR-4 ovarian
SF-295 CNS = test system: SF-295 CNS
SK-OV-3 ovarian = test system: SK-OV-3 ovarian
SK-MEL-2 melanoma = test system: SK-MEL-2 melanoma

SMILES	GI50 (A498 renal)	TGI (A498 renal)	GI50 (ACHN renal)	TGI (ACHN renal)	GI50 (EKVX NSCLC)	TGI (EKVX NSCLC)	GI50 (MCF7 breast)	TGI (MCF7 breast)	GI50 (MDA-MB-231 breast)	TGI (MDA-MB-231 breast)	GI50 (OVCAR-3 ovarian)	TGI (OVCAR-3 ovarian)	GI50 (OVCAR-4 ovarian)	TGI (OVCAR-4 ovarian)	GI50 (SF-295 CNS)	TGI (SF-295 CNS)	GI50 (SK-OV-3 ovarian)	TGI (SK-OV-3 ovarian)	GI50 (SK-MEL-2 melanoma)	TGI (SK-MEL-2 melanoma)
Clc1ccc(Nc2ncnc3ccccc23)cc1	17.6 µM	85.8 µM	11.1 µM	71.7 µM	10.1 µM	> 100 µM	30.4 µM	> 100 µM	> 100 µM	> 100 µM	34.9 µM	> 100 µM	> 100 µM	> 100 µM	37.9 µM	> 100 µM	91.1 µM	> 100 µM		
O=C(NC(=S)Nc1ccc(-c2nc3ccccc3[nH]2)cc1)c1ccc2ccccc2c1	10.7 µM	57.8 µM	1.92 µM	4.02 µM	22.9 µM	> 100 µM	4.56 µM	> 100 µM	2.46 µM	7.15 µM	3.22 µM	10.1 µM	2.78 µM	9.22 µM			12.8 µM	37 µM	18.3 µM	48.8 µM
COc1cc2cc(Oc3ccc(NC(=O)Nc4ccc(F)c(C(F)(F)F)c4)cc3)c(C)nc2cc1OCCN1CCOCC1	2.8 µM	10.2 µM	2.3 µM	11.4 µM	2.53 µM	20.7 µM	1.46 µM	3.48 µM	2.83 µM	9.02 µM	2.94 µM	13.6 µM	0.706 µM	5.23 µM	1.35 µM	4.22 µM	3.76 µM	26.7 µM	2.38 µM	7.58 µM
O=C(CSc1nc2ccc([N+](=O)[O-])cc2[nH]1)Nc1ccc([N+](=O)[O-])cc1	1.34 µM	3.8 µM	2.49 µM	8.02 µM	2.23 µM	10.8 µM	1.95 µM	8.83 µM	2.08 µM	6.31 µM	2.05 µM	10.9 µM	1.92 µM	29.3 µM	2.03 µM	6.43 µM	1.89 µM	5.59 µM	1.97 µM	5.81 µM
CCN1C2=C(SC(=S)C1=C1SC(C(=O)c3ccccc3)=C(C(=O)c3ccccc3)S1)SC(=Nc1ccccc1)C2=O	28.1 µM	> 100 µM	37.3 µM	> 100 µM	80.4 µM	> 100 µM	7.44 µM	> 100 µM	13.6 µM	> 100 µM	30.9 µM	> 100 µM	> 100 µM	> 100 µM	11.3 µM	> 90.7 µM	> 96.7 µM	> 100 µM	7.74 µM	> 47.3 µM
CC(C)c1ccc2c(c1)CCC1C(C)(CN)CCCC21C (stereo unspecified)		2.78 µM		3.09 µM		3.4 µM		2.82 µM		2.95 µM		3.26 µM		2.72 µM		3.34 µM		3.98 µM		3.15 µM
